In PubChem BioAssay AID1963969 (Molecular Pharmacology Branch, DTP, NCI, 2024):

Tested on: 817829-284-R-J1-PDC multi-cell spheroid viability
Assay: Anticancer human tumor 817829-284-R-J1-PDC patient-derived colon adenocarcinoma cell line growth inhibition [PI3K]
Conditions: for IC50: curve of first compound; for viability, T/C: stronger effect = lower value
Summary of the method: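 High-throughput combination screen: PI3K inhibitors crossed with targeted small molecules on complex spheroids of tumor cells, HUVEC and MSCs at 37 degrees C, 5% CO2. Top concentration was at or near clinical Cmax (otherwise 10 microM), with half-log decrements.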
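Further: spheroids exposed to agents for seven days before readout.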
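Wherever viability, T/C is given: percent of vehicle DMSO control viability which is 100%.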

With `C#Cc1c(F)ccc2cc(O)cc(-c3ncc4c(N5CC6CCC(C5)N6)nc(OCC56CCCN5CC(F)C6)nc4c3F)c12` (configuration not stated) + COc1c(OCCCN2CCOCC2)ccc2c3n(c(=NC(=O)c4cnc(N)nc4)nc12)CCN3 the IC50 (second compound 0.00316 µM) was greater than 10 µM, the IC50 (second compound 0.01 µM) was greater than 10 µM and the IC50 (second compound 0.0316 µM) was 7.45 µM. It also gave an IC50 (second compound 0.1 µM) of less than 0.0316 µM, an IC50 (second compound 0.316 µM) of less than 0.0316 µM and an IC50 (second compound 1 µM) of less than 0.0316 µM. It also gave a viability, T/C (second compound 0.00316 µM, first compound 0.0316 µM) of 64.9%, a viability, T/C (second compound 0.00316 µM, first compound 0.1 µM) of 82.5% and a viability, T/C (second compound 0.00316 µM, first compound 0.316 µM) of 83.7%. The viability, T/C (second compound 0.00316 µM, first compound 1 µM) was 71.8%, the viability, T/C (second compound 0.00316 µM, first compound 3.16 µM) was 77% and the viability, T/C (second compound 0.00316 µM, first compound 10 µM) was 70.2%. For the same molecule, the viability, T/C (second compound 0.01 µM, first compound 0.0316 µM) was 86.2%, the viability, T/C (second compound 0.01 µM, first compound 0.1 µM) was 84% and the viability, T/C (second compound 0.01 µM, first compound 0.316 µM) was 62.9%. For the same molecule, the viability, T/C (second compound 0.01 µM, first compound 1 µM) was 61.8%, the viability, T/C (second compound 0.01 µM, first compound 3.16 µM) was 69.6% and the viability, T/C (second compound 0.01 µM, first compound 10 µM) was 51.1%. The viability, T/C (second compound 0.0316 µM, first compound 0.0316 µM) was 73.8%, the viability, T/C (second compound 0.0316 µM, first compound 0.1 µM) was 41.5% and the viability, T/C (second compound 0.0316 µM, first compound 0.316 µM) was 53.7%. It also gave a viability, T/C (second compound 0.0316 µM, first compound 1 µM) of 50.4%, a viability, T/C (second compound 0.0316 µM, first compound 3.16 µM) of 74.8% and a viability, T/C (second compound 0.0316 µM, first compound 10 µM) of 37.2%. For the same molecule, the viability, T/C (second compound 0.1 µM, first compound 0.0316 µM) was 28.6%, the viability, T/C (second compound 0.1 µM, first compound 0.1 µM) was 40.5% and the viability, T/C (second compound 0.1 µM, first compound 0.316 µM) was 37.6%. It also gave a viability, T/C (second compound 0.1 µM, first compound 1 µM) of 21.4%, a viability, T/C (second compound 0.1 µM, first compound 3.16 µM) of 37.8% and a viability, T/C (second compound 0.1 µM, first compound 10 µM) of 30.8%. The viability, T/C (second compound 0.316 µM, first compound 0.0316 µM) was 17.4%, the viability, T/C (second compound 0.316 µM, first compound 0.1 µM) was 26.3% and the viability, T/C (second compound 0.316 µM, first compound 0.316 µM) was 22.2%. For the same molecule, the viability, T/C (second compound 0.316 µM, first compound 1 µM) was 14.9%, the viability, T/C (second compound 0.316 µM, first compound 3.16 µM) was 18% and the viability, T/C (second compound 0.316 µM, first compound 10 µM) was 12.4%. It also gave a viability, T/C (second compound 1 µM, first compound 0.0316 µM) of 8.66%, a viability, T/C (second compound 1 µM, first compound 0.1 µM) of 9.22% and a viability, T/C (second compound 1 µM, first compound 0.316 µM) of 8.61%. The viability, T/C (second compound 1 µM, first compound 1 µM) was 8.24%, the viability, T/C (second compound 1 µM, first compound 3.16 µM) was 5.56% and the viability, T/C (second compound 1 µM, first compound 10 µM) was 6.03%.
